Reference: ChEMBL document CHEMBL1201862, “PubChem BioAssay data set” (2004)
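Dose response: 5 concentrations. Exposure: 48 h. Format: 96-well plates. Endpoint: linear interpolation; highest concentration if not reached. GI50 is the concentration that inhibits growth by half.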 Activity calls are given as the source filed them. No stated cut-off is given here; in the data, active = GI50 up to about 1.1 µM and inactive = higher.

How the values were obtained:
Assay in all cases: NCI anticancer screen, dose series, 48 h
BT-549 = system: BT-549
EKVX = system: EKVX
HCT-116 = system: HCT-116
HOP-62 = system: HOP-62
K562 = system: K562
KM12 = system: KM12
M14 = system: M14
MCF7 = system: MCF7
MDA-N = system: MDA-N
MOLT-4 = system: MOLT-4
NCI-H226 = system: NCI-H226
OVCAR-8 = system: OVCAR-8
SF-295 = system: SF-295
SK-MEL-5 = system: SK-MEL-5
U-251 = system: U-251
UACC-62 = system: UACC-62
NCI-H522 = system: NCI-H522
RXF 393 = system: RXF 393

| Compound | GI50 (BT-549) | GI50 (EKVX) | GI50 (HCT-116) | GI50 (HOP-62) | GI50 (K562) | GI50 (KM12) | GI50 (M14) | GI50 (MCF7) | GI50 (MDA-N) | GI50 (MOLT-4) | GI50 (NCI-H226) | GI50 (OVCAR-8) | GI50 (SF-295) | GI50 (SK-MEL-5) | GI50 (U-251) | GI50 (UACC-62) | GI50 (NCI-H522) | GI50 (RXF 393) |
| --- | --- | --- | --- | --- | --- | --- | --- | --- | --- | --- | --- | --- | --- | --- | --- | --- | --- | --- |
| CC1(C)CC(=O)c2c(nc3ccc4ccccc4c3c2-c2ccc(NC(=O)CCCC(=O)Nc3ccc(-c4c5c(nc6ccc7ccccc7c46)CC(C)(C)CC5=O)cc3)cc2)C1 | > 100 µM (inactive) | > 100 µM (inactive) | > 100 µM (inactive) | > 100 µM (inactive) | > 100 µM (inactive) | > 100 µM (inactive) | > 100 µM (inactive) | > 100 µM (inactive) | > 100 µM (inactive) | > 100 µM (inactive) | > 100 µM (inactive) | > 100 µM (inactive) | > 100 µM (inactive) | > 100 µM (inactive) | > 100 µM (inactive) | > 100 µM (inactive) |  |  |
| Nc1nc(N)c2ncn(Cc3ccccc3CO)c2n1 | > 100 µM (inactive) | > 100 µM (inactive) | > 100 µM (inactive) | > 100 µM (inactive) | > 100 µM (inactive) | > 100 µM (inactive) | > 100 µM (inactive) | > 100 µM (inactive) |  | > 100 µM (inactive) | > 100 µM (inactive) | > 100 µM (inactive) | > 100 µM (inactive) | > 100 µM (inactive) | > 100 µM (inactive) | > 100 µM (inactive) | > 100 µM (inactive) |  |
| CC(C)C(O)(C(=O)OCN1C(=O)C2C3C=CC(C2C1=O)C1C2C(=O)N(COC(=O)C(O)(C(C)C)C(C)O)C(=O)C2C31)C(C)O (configuration not stated) |  | > 100 µM (inactive) | > 100 µM (inactive) | > 100 µM (inactive) | > 100 µM (inactive) | > 100 µM (inactive) | > 100 µM (inactive) | > 100 µM (inactive) | > 100 µM (inactive) | > 100 µM (inactive) | > 100 µM (inactive) | > 100 µM (inactive) | > 100 µM (inactive) | > 100 µM (inactive) | > 100 µM (inactive) | > 100 µM (inactive) | > 100 µM (inactive) | > 100 µM (inactive) |
| COc1ccc(N[S+]([O-])C2CCCCC2)cc1 (configuration not stated) |  | > 100 µM (inactive) | > 100 µM (inactive) | 91.8 µM (inactive) | > 100 µM (inactive) | > 100 µM (inactive) | > 100 µM (inactive) | > 100 µM (inactive) |  | > 100 µM (inactive) | > 100 µM (inactive) | > 100 µM (inactive) | > 100 µM (inactive) | > 100 µM (inactive) | > 100 µM (inactive) |  | > 100 µM (inactive) | > 100 µM (inactive) |
| NCCCN(CCCCN(CCCN)C(=O)OCc1ccccc1)C(=O)OCc1ccccc1 | > 100 µM (inactive) | > 100 µM (inactive) | > 100 µM (inactive) | > 100 µM (inactive) | 37.9 µM (inactive) | > 100 µM (inactive) | > 100 µM (inactive) | 30.9 µM (inactive) |  | 47.9 µM (inactive) | > 100 µM (inactive) | > 100 µM (inactive) | > 100 µM (inactive) | > 100 µM (inactive) | > 100 µM (inactive) | 71.4 µM (inactive) | 28.5 µM (inactive) | 98.6 µM (inactive) |
| COP(=O)(Cc1ccccc1)Cc1ccccc1 | > 100 µM (inactive) | > 100 µM (inactive) | > 100 µM (inactive) | > 100 µM (inactive) | > 100 µM (inactive) |  | > 100 µM (inactive) | > 100 µM (inactive) |  | > 100 µM (inactive) | > 100 µM (inactive) | > 100 µM (inactive) | > 100 µM (inactive) | > 100 µM (inactive) | > 100 µM (inactive) | > 100 µM (inactive) | > 100 µM (inactive) | 86.1 µM (inactive) |
| COc1cc(OC)c(/C=N/N=C(\N)NO)c(OC)c1 |  | 35.4 µM (inactive) | > 100 µM (inactive) | 55.8 µM (inactive) | 41.6 µM (inactive) | 0.787 µM (active) | 95.5 µM (inactive) | > 100 µM (inactive) | > 100 µM (inactive) | > 100 µM (inactive) | > 100 µM (inactive) | > 100 µM (inactive) | 33 µM (inactive) | > 100 µM (inactive) | > 100 µM (inactive) | 25.6 µM (inactive) | > 100 µM (inactive) | > 100 µM (inactive) |
| COC1OC2COC(c3ccccc3)OC2C(O)C1OC(=S)c1ccccc1 (configuration not stated) | 53.1 µM (inactive) | 19.5 µM (inactive) |  | 30.8 µM (inactive) | 53.3 µM (inactive) |  | 46.2 µM (inactive) | 36.3 µM (inactive) | 27.3 µM (inactive) | 70.6 µM (inactive) | 46.1 µM (inactive) | 67.8 µM (inactive) | 39.3 µM (inactive) | 23 µM (inactive) | 0.188 µM (active) | 31 µM (inactive) |  | 41.4 µM (inactive) |
| CC1CN=C(N(C)C(=O)Nc2ccc(Cl)cc2)S1 (configuration not stated) |  | 21.4 µM (inactive) | 4.89 µM (inactive) | 48.2 µM (inactive) | 8.61 µM (inactive) | 4.72 µM (inactive) | 1.72 µM (inactive) | 32.6 µM (inactive) | 8.69 µM (inactive) | 14 µM (inactive) |  | 45.7 µM (inactive) | 5.14 µM (inactive) | 9.04 µM (inactive) | 13.3 µM (inactive) |  |  |  |
